Measurements: ChEMBL document CHEMBL1156188, “Synthesis and SAR of novel 4-morpholinopyrrolopyrimidine derivatives as potent phosphatidylinositol 3-kinase inhibitors” (J Med Chem, 2010)
Converted amounts (≈) assume the structure as drawn.

test system: MDA-MB-361; test: cells; conditions: Homo sapiens, MDA-MB-361, 72 h

| IC50 [nM] | Compound |
| --- | --- |
| 4.5 | CCn1ccc2c(N3CCOCC3)nc(-c3ccc(NC(=O)Nc4ccc(C(=O)N5CCN(C)CC5)cc4)cc3)nc21 |
| 53 | O=C(Nc1ccncc1)Nc1ccc(-c2nc(N3CCOCC3)c3ccn(CC(F)(F)F)c3n2)cc1 |
| 5.5 | CCn1ccc2c(N3CCOCC3)nc(-c3ccc(NC(=O)Nc4ccc(C(=O)NCCN(C)C)cc4)cc3)nc21 |
| 6.7 | CN1CCN(C(=O)c2ccc(NC(=O)Nc3ccc(-c4nc(N5CCOCC5)c5ccn(CC(F)(F)F)c5n4)cc3)cc2)CC1 |
| 11 | CN(C)C1CCN(C(=O)c2ccc(NC(=O)Nc3ccc(-c4nc(N5CCOCC5)c5ccn(CC(F)(F)F)c5n4)cc3)cc2)CC1 |
| < 3 | CN(C)CCN(C)C(=O)c1ccc(NC(=O)Nc2ccc(-c3nc(N4CCOCC4)c4ccn(CC(F)(F)F)c4n3)cc2)cc1 |
| 4.5 | CCn1ccc2c(N3CCOCC3)nc(-c3ccc(NC(=O)Nc4ccc(C(=O)N5CCNCC5)cc4)cc3)nc21 |
| 10.3 | CN(C)CCNC(=O)c1ccc(NC(=O)Nc2ccc(-c3nc(N4CCOCC4)c4ccn(CC(F)(F)F)c4n3)cc2)cc1 |

test system: not listed separately; test: Drug level in human MDA-MB-361 cells xenografted nude mouse at 25 mg/kg, iv after 8 hrs; assay type: ADME, organism-based; design: dose 25 mg/kg, route intravenous; conditions: blood, read-out: Drug uptake

| concentration at 8 h [ng/mL] | Compound |
| --- | --- |
| 1680 | CN1CCN(C(=O)c2ccc(NC(=O)Nc3ccc(-c4nc(N5CCOCC5)c5ccn(CC(F)(F)F)c5n4)cc3)cc2)CC1 |
| 1730 | CN(C)CCN(C)C(=O)c1ccc(NC(=O)Nc2ccc(-c3nc(N4CCOCC4)c4ccn(CC(F)(F)F)c4n3)cc2)cc1 |

test system: PC-3; test: Cytotoxicity against human PC3 cells with PTEN mutant after 72 hrs; assay type: functional, cell-based; conditions: PC-3, 72 h

| Compound | IC50 [nM] |
| --- | --- |
| CN(C)CCn1ccc2c(N3CCOCC3)nc(-c3ccc(NC(=O)Nc4ccncc4)cc3)nc21 | 100 |
| COC(Cn1ccc2c(N3CCOCC3)nc(-c3ccc(NC(=O)Nc4ccncc4)cc3)nc21)OC | 72 |
| CN(C)CCn1ccc2c(N3CCOCC3)nc(-c3cccc(CO)c3)nc21 | 691 |
| CN(C)CCn1ccc2c(N3CCOCC3)nc(-c3cccc(O)c3)nc21 | 1180 |
| CCn1ccc2c(N3CCOCC3)nc(-c3ccc(NC(=O)Nc4ccc(C(=O)N5CCN(C)CC5)cc4)cc3)nc21 | 17 |
| OCc1cccc(-c2nc(N3CCOCC3)c3cc[nH]c3n2)c1 | 1210 |
| O=C(Nc1ccncc1)Nc1ccc(-c2nc(N3CCOCC3)c3ccn(CC(F)(F)F)c3n2)cc1 | 82 |
| O=C(Nc1ccncc1)Nc1ccc(-c2nc(N3CCOCC3)c3ccn(CCN4CCCC4)c3n2)cc1 | 555 |
| CCn1ccc2c(N3CCOCC3)nc(-c3ccc(NC(=O)Nc4ccc(C(=O)NCCN(C)C)cc4)cc3)nc21 | 26.5 |
| CN1CCN(CCn2ccc3c(N4CCOCC4)nc(-c4ccc(NC(=O)Nc5ccncc5)cc4)nc32)CC1 | 964 |
| CNC(=O)Nc1ccc(-c2nc(N3CCOCC3)c3ccn(CCN(C)C)c3n2)cc1 | 437 |
| CN1CCN(C(=O)c2ccc(NC(=O)Nc3ccc(-c4nc(N5CCOCC5)c5ccn(CC(F)(F)F)c5n4)cc3)cc2)CC1 | 17 |
| CN(C)C1CCN(C(=O)c2ccc(NC(=O)Nc3ccc(-c4nc(N5CCOCC5)c5ccn(CC(F)(F)F)c5n4)cc3)cc2)CC1 | 45 |
| CN(C)CCN(C)C(=O)c1ccc(NC(=O)Nc2ccc(-c3nc(N4CCOCC4)c4ccn(CC(F)(F)F)c4n3)cc2)cc1 | 13 |
| CCn1ccc2c(N3CCOCC3)nc(-c3ccc(NC(=O)Nc4ccc(C(=O)N5CCNCC5)cc4)cc3)nc21 | 27 |
| CN(C)CCNC(=O)c1ccc(NC(=O)Nc2ccc(-c3nc(N4CCOCC4)c4ccn(CC(F)(F)F)c4n3)cc2)cc1 | 23 |

test system: not listed separately; test: Solubility at pH 7.4; assay type: physicochemical; conditions: buffer

| solubility [µg/mL] | Compound |
| --- | --- |
| 52 (≈ 107 µM) | CN(C)CCn1ccc2c(N3CCOCC3)nc(-c3ccc(NC(=O)Nc4ccncc4)cc3)nc21 |
| 2 (≈ 3.97 µM) | COC(Cn1ccc2c(N3CCOCC3)nc(-c3ccc(NC(=O)Nc4ccncc4)cc3)nc21)OC |
| > 100 | CN(C)CCn1ccc2c(N3CCOCC3)nc(-c3cccc(CO)c3)nc21 |
| > 100 | CN(C)CCn1ccc2c(N3CCOCC3)nc(-c3cccc(O)c3)nc21 |
| 38 (≈ 122 µM) | OCc1cccc(-c2nc(N3CCOCC3)c3cc[nH]c3n2)c1 |
| 1 (≈ 2.01 µM) | O=C(Nc1ccncc1)Nc1ccc(-c2nc(N3CCOCC3)c3ccn(CC(F)(F)F)c3n2)cc1 |
| 28 (≈ 54.6 µM) | O=C(Nc1ccncc1)Nc1ccc(-c2nc(N3CCOCC3)c3ccn(CCN4CCCC4)c3n2)cc1 |
| 1 (≈ 1.8 µM) | CCn1ccc2c(N3CCOCC3)nc(-c3ccc(NC(=O)Nc4ccc(C(=O)NCCN(C)C)cc4)cc3)nc21 |
| > 100 | CN1CCN(CCn2ccc3c(N4CCOCC4)nc(-c4ccc(NC(=O)Nc5ccncc5)cc4)nc32)CC1 |
| > 100 | CNC(=O)Nc1ccc(-c2nc(N3CCOCC3)c3ccn(CCN(C)C)c3n2)cc1 |
| 1 (≈ 1.54 µM) | CN(C)C1CCN(C(=O)c2ccc(NC(=O)Nc3ccc(-c4nc(N5CCOCC5)c5ccn(CC(F)(F)F)c5n4)cc3)cc2)CC1 |
| 1 (≈ 1.8 µM) | CCn1ccc2c(N3CCOCC3)nc(-c3ccc(NC(=O)Nc4ccc(C(=O)N5CCNCC5)cc4)cc3)nc21 |

target: Serine/threonine-protein kinase mTOR (Homo sapiens, UniProt P42345); test: Inhibition of mTOR by DELFIA; conditions: not given

| IC50 [nM] | Compound |
| --- | --- |
| 1.4 | CCn1ccc2c(N3CCOCC3)nc(-c3ccc(NC(=O)Nc4ccc(C(=O)N5CCN(C)CC5)cc4)cc3)nc21 |
| 0.5 | CCn1ccc2c(N3CCOCC3)nc(-c3ccc(NC(=O)Nc4ccc(C(=O)NCCN(C)C)cc4)cc3)nc21 |
| 1.7 | CN1CCN(C(=O)c2ccc(NC(=O)Nc3ccc(-c4nc(N5CCOCC5)c5ccn(CC(F)(F)F)c5n4)cc3)cc2)CC1 |
| 0.6 | CN(C)CCN(C)C(=O)c1ccc(NC(=O)Nc2ccc(-c3nc(N4CCOCC4)c4ccn(CC(F)(F)F)c4n3)cc2)cc1 |
| 0.9 | CCn1ccc2c(N3CCOCC3)nc(-c3ccc(NC(=O)Nc4ccc(C(=O)N5CCNCC5)cc4)cc3)nc21 |
| 0.4 | CN(C)CCNC(=O)c1ccc(NC(=O)Nc2ccc(-c3nc(N4CCOCC4)c4ccn(CC(F)(F)F)c4n3)cc2)cc1 |

test system: not listed separately; test: in vitro; conditions: rat, liver microsomes

| half-life [min] | Compound |
| --- | --- |
| 2 | CN(C)CCn1ccc2c(N3CCOCC3)nc(-c3ccc(NC(=O)Nc4ccncc4)cc3)nc21 |
| 4 | COC(Cn1ccc2c(N3CCOCC3)nc(-c3ccc(NC(=O)Nc4ccncc4)cc3)nc21)OC |
| 15 | CCn1ccc2c(N3CCOCC3)nc(-c3ccc(NC(=O)Nc4ccc(C(=O)N5CCN(C)CC5)cc4)cc3)nc21 |
| > 30 | O=C(Nc1ccncc1)Nc1ccc(-c2nc(N3CCOCC3)c3ccn(CC(F)(F)F)c3n2)cc1 |
| 4 | O=C(Nc1ccncc1)Nc1ccc(-c2nc(N3CCOCC3)c3ccn(CCN4CCCC4)c3n2)cc1 |
| > 30 | CCn1ccc2c(N3CCOCC3)nc(-c3ccc(NC(=O)Nc4ccc(C(=O)NCCN(C)C)cc4)cc3)nc21 |
| 4 | CN1CCN(CCn2ccc3c(N4CCOCC4)nc(-c4ccc(NC(=O)Nc5ccncc5)cc4)nc32)CC1 |
| 9 | CNC(=O)Nc1ccc(-c2nc(N3CCOCC3)c3ccn(CCN(C)C)c3n2)cc1 |
| 27 | CN1CCN(C(=O)c2ccc(NC(=O)Nc3ccc(-c4nc(N5CCOCC5)c5ccn(CC(F)(F)F)c5n4)cc3)cc2)CC1 |
| > 30 | CN(C)C1CCN(C(=O)c2ccc(NC(=O)Nc3ccc(-c4nc(N5CCOCC5)c5ccn(CC(F)(F)F)c5n4)cc3)cc2)CC1 |
| 29 | CN(C)CCN(C)C(=O)c1ccc(NC(=O)Nc2ccc(-c3nc(N4CCOCC4)c4ccn(CC(F)(F)F)c4n3)cc2)cc1 |
| > 30 | CCn1ccc2c(N3CCOCC3)nc(-c3ccc(NC(=O)Nc4ccc(C(=O)N5CCNCC5)cc4)cc3)nc21 |
| > 30 | CN(C)CCNC(=O)c1ccc(NC(=O)Nc2ccc(-c3nc(N4CCOCC4)c4ccn(CC(F)(F)F)c4n3)cc2)cc1 |

test system: not listed separately; test: Solubility at pH 3; assay type: physicochemical; conditions: buffer

| solubility [µg/mL] | Compound |
| --- | --- |
| > 100 | CN1CCN(C(=O)c2ccc(NC(=O)Nc3ccc(-c4nc(N5CCOCC5)c5ccn(CC(F)(F)F)c5n4)cc3)cc2)CC1 |
| > 100 | CN(C)CCN(C)C(=O)c1ccc(NC(=O)Nc2ccc(-c3nc(N4CCOCC4)c4ccn(CC(F)(F)F)c4n3)cc2)cc1 |
| 68 (≈ 111 µM) | CN(C)CCNC(=O)c1ccc(NC(=O)Nc2ccc(-c3nc(N4CCOCC4)c4ccn(CC(F)(F)F)c4n3)cc2)cc1 |

target: Phosphatidylinositol 4,5-bisphosphate 3-kinase catalytic subunit alpha isoform (Homo sapiens, UniProt P42336); test: not given; conditions: not given
Sequence (P42336 whole entry, canonical isoform): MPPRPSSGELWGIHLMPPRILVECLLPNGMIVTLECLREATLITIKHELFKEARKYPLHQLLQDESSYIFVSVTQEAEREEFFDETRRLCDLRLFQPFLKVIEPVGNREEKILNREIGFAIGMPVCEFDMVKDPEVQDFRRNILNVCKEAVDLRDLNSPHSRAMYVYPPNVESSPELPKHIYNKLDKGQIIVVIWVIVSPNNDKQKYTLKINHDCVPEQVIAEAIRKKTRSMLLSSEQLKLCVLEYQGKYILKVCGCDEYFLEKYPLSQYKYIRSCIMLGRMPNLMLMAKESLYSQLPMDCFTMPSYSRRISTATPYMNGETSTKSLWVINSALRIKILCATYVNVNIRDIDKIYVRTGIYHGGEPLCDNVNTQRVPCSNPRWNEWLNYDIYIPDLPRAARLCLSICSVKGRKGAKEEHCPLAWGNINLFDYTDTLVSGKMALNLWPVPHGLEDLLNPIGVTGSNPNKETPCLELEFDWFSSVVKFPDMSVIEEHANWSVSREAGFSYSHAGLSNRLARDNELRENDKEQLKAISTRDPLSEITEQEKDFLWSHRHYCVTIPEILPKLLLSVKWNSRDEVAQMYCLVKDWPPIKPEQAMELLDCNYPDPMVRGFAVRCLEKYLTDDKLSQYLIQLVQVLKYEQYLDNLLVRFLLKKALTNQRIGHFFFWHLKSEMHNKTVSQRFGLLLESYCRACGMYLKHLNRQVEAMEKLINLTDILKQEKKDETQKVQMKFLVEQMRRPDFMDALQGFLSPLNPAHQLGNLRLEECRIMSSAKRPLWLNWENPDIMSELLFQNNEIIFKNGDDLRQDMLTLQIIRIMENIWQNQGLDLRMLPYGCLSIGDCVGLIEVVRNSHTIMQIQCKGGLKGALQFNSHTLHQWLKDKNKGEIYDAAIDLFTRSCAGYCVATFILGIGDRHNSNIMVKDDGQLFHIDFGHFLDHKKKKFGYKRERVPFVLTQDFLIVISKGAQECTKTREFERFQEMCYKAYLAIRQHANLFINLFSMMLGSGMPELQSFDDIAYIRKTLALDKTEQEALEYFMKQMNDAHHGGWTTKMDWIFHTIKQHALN

| IC50 [nM] | Compound |
| --- | --- |
| 8 | CN(C)CCn1ccc2c(N3CCOCC3)nc(-c3ccc(NC(=O)Nc4ccncc4)cc3)nc21 |
| 2.7 | CCn1ccc2c(N3CCOCC3)nc(-c3ccc(NC(=O)Nc4ccc(C(=O)N5CCN(C)CC5)cc4)cc3)nc21 |
| 1.8 | CCn1ccc2c(N3CCOCC3)nc(-c3ccc(NC(=O)Nc4ccc(C(=O)NCCN(C)C)cc4)cc3)nc21 |
| 2.4 | CN1CCN(C(=O)c2ccc(NC(=O)Nc3ccc(-c4nc(N5CCOCC5)c5ccn(CC(F)(F)F)c5n4)cc3)cc2)CC1 |
| 0.8 | CCn1ccc2c(N3CCOCC3)nc(-c3ccc(NC(=O)Nc4ccc(C(=O)N5CCNCC5)cc4)cc3)nc21 |
| 1.4 | CN(C)CCNC(=O)c1ccc(NC(=O)Nc2ccc(-c3nc(N4CCOCC4)c4ccn(CC(F)(F)F)c4n3)cc2)cc1 |

test system: not listed separately; test: in vitro; conditions: mouse, liver microsomes

| half-life [min] | Compound |
| --- | --- |
| > 30 | CN1CCN(C(=O)c2ccc(NC(=O)Nc3ccc(-c4nc(N5CCOCC5)c5ccn(CC(F)(F)F)c5n4)cc3)cc2)CC1 |
| > 30 | CN(C)CCN(C)C(=O)c1ccc(NC(=O)Nc2ccc(-c3nc(N4CCOCC4)c4ccn(CC(F)(F)F)c4n3)cc2)cc1 |

test system: not listed separately; test: in vitro; conditions: human, liver microsomes

| half-life [min] | Compound |
| --- | --- |
| > 30 | CCn1ccc2c(N3CCOCC3)nc(-c3ccc(NC(=O)Nc4ccc(C(=O)N5CCN(C)CC5)cc4)cc3)nc21 |
| > 30 | CCn1ccc2c(N3CCOCC3)nc(-c3ccc(NC(=O)Nc4ccc(C(=O)NCCN(C)C)cc4)cc3)nc21 |
| > 30 | CN1CCN(C(=O)c2ccc(NC(=O)Nc3ccc(-c4nc(N5CCOCC5)c5ccn(CC(F)(F)F)c5n4)cc3)cc2)CC1 |
| > 30 | CN(C)CCN(C)C(=O)c1ccc(NC(=O)Nc2ccc(-c3nc(N4CCOCC4)c4ccn(CC(F)(F)F)c4n3)cc2)cc1 |
| > 30 | CCn1ccc2c(N3CCOCC3)nc(-c3ccc(NC(=O)Nc4ccc(C(=O)N5CCNCC5)cc4)cc3)nc21 |
| > 30 | CN(C)CCNC(=O)c1ccc(NC(=O)Nc2ccc(-c3nc(N4CCOCC4)c4ccn(CC(F)(F)F)c4n3)cc2)cc1 |
